Biological target: T1, ABL1 G250E (Homo sapiens, UniProt P00519, G250E)
T1 construct: purchased Thermo Fisher Scientific (Life Technologies) SelectScreen
Assay: SelectScreen Z'LYTE
Assay type: biochemical
How it was run: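 NU5455 was profiled across the SelectScreen Broad panel of kinase activity and binding assays. Z'LYTE reactions such as CSF1R ran at apparent Km ATP, while the Adapta CAMK1 assay used ATP listed as 10. Values are given as percent.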

CN(C(=O)CN1CCOCC1)c1ccc2sc3c(-c4cccc5c(=O)cc(N6CC7CCC(C6)O7)oc45)cccc3c2c1 [NU5455]
inhibition at 1 µM: -8.5%

From article PMC6934184, “Selective DNA-PKcs inhibition extends the therapeutic index of localized radiotherapy and chemotherapy” (The Journal of Clinical Investigation, 2019)
